Marks after values point to notes of the source that are not given here.
Experiments:
[1] = test system: mungbean seedling growth; conditions: cited from earlier work
[2] = target: NMDA; experiment: Glutamate binding assay, NMDA-specific L-[³H]glutamate binding to synaptic plasma membranes; conditions: 12.5 nM L-[³H]glutamate, SPM, 0-4°C, 10 minutes
Experimental: (§1) The purpose of this assay is to determine the binding affinity of a compound of Formula I for the three glutamic acid receptor sub-types. (NMDA, QUIS, Kainate). It is expected that a compound interacting with one of these sub-type receptors will mimic or antagonize the effect of the endogenous ligand and thereby have a memory enhancing effect or have a neuroprotective and/or anti-epileptic effects. This procedure was carried out as follows:
(§2) Synaptic plasma membranes (SPM) were prepared as previously described [Monahan, J.B. and Michel, J., "Identification and Characterization of an N-methyl-D-aspartate-specific L-[³H]glutamate Recognition Site in Synaptic Plasma Membranes, J. Neurochem., 48, 1699-1708 (1987)]. The SPM were stored at a concentration of 10-15 mg/ml in 0.32M sucrose, 0.5 mM EDTA, 1mM MgSO₄, 5 mM Tris/SO₄, pH 7.4, under liquid nitrogen. The identity and purity of the subcellular fractions were confirmed by both electron microscopy and marker enzymes. Protein concentrations were determined by using a modification of the method of Lowry [Ohnishi, S.T. and Barr, J.K., "A Simplified Method of Quantitating Proteins Using the Biuret and Phenol Reagents", Anal. Biochem., 86, 193-197 (1978)]. The SPM were treated identically for the [³H]AMPA (QUIS), [³H]kainate and NMDA-specific L-[³H]glumatate binding assays. The SPM were thawed at room temperature, diluted twenty-fold with 50mM Tris/-acetate, pH 7.4, incubated at 37°C for 30 minutes, and centrifuged at 100,000 g for 15 minutes. The dilution, incubation, and centrifugation was repeated a total of three times. The basic procedure for the receptor subclass binding assays was similar. This general method involved adding the radioligand (12.5 nM L-[³H]glutamate; 0.5 nM [³H]kainate or 10nM L-[³H]AMPA) to the appropriate concentration of the test compound and initiating the assay by the addition of ice cold SPM (0.2-0.45 mg). The binding assays were performed in 1.5 ml centrifuge tubes with the total volume adjusted to 1.0 ml. Additions of test compounds were made in 50 mM Tris/acetate, pH 7.4 and incubations were carried out at 0-4°C. The incubation time for the NMDA and the AMPA binding assays was 10 minutes and for the kainate binding assay 60 minutes. The AMPA binding assay contained 100 mM KSCN. […] The supernatant was aspirated and the pelleted membranes dissolved in Beckman Ready-Protein scintillation cocktail and the samples counted on a Beckman LS 5800 or 3801 liquid scintillation counter with automatic corrections for quenching and counting efficiency. […] Radioligand binding to the SPM was analyzed using Scatchard and Hill transformations and the Ki values of the compounds determined using logit-log transformations. […]

[3] = target: Kainate; experiment: Glutamate binding assay, [³H]kainate binding to synaptic plasma membranes; conditions: 0.5 nM [³H]kainate, SPM, 0-4°C, 60 minutes
Experimental: as §1, §2

[4] = target: QUIS; experiment: Glutamate binding assay, [³H]AMPA (QUIS) binding to synaptic plasma membranes; conditions: 10nM [³H]AMPA, 100 mM KSCN, SPM, 0-4°C, 10 minutes
Experimental: as §1, §2

[5] = test system: NMDA neurotoxicity; experiment: In vitro chick retina assay, protection against NMDA; assay type: cell-based; conditions: for % protection vs NMDA: NMDA 200 µM; for Antagonist activity vs NMDA: concentration required to completely prevent toxicity of NMDA (200 µM), 30 minutes at 37°C
From the text: (§3) This assay is adapted from procedures described in literature sources [Olney, J.W., Price, M.T., Fuller, T.A., Labruyere, J., Samson, L., Carpenter, M., Mahan, K., "The Anti-Excitotoxic Effects of Certain Anesthetics, Analgesics and Sedative-Hypnotics", Neuroscience Letters, 68, 29-34, (1986)]. By an approach similar to that earlier described [Reif-Lehrer, L., Bergenthal, J. and Hanninen, L., "Effects of Monosodium Glutamate on Chick Embryo Retina in Culture", Invest. Ophthalmol., 14, 114-124, (1975)], 15-day-old chick embryos were decapitated and their eyes removed and cut into quadrants after excising the cornea and removing the lens, vitreous and iris. The retinal quadrants were then gently separated from the pigment epithelium and incubated for 30 minutes at 37°C in a standard balanced salt solution (BSS) to which test compounds, either excitatory amino acid agonists or potential antagonists or both, were added in various concentrations. As described elsewhere [Olney, J.W., Price, M.T., Samson, L. and Labruyere, J., "The Role of Specific Ions in Glutamate Neurotoxicity". Neurosci. Lett.. […] After incubation for 30 minutes, the retinal quadrants were fixed by immersion in phosphate-buffered solution containing 1.5% glutaraldehyde and 1% paraformaldehyde, then additionally fixed in 1% osmium tetroxide and embedded in araldite, allowing sections to be cut for either light or electron microscopy [Olney, J.W., "Glutamate-Induced Retinal Degeneration in Neonatal Mice. Electron Microscopy of the Acutely Evolving Lesion", J. Neuropathol. Exp. Neurol., 28, 455-474, (1969)]. […] Neurosci. […] For purposes of the present study, NMDA and KA were the agonists employed and numerous potential antagonists were tested at various concentrations for their ability to prevent NMDA or KA neurotoxicity. […] Internal controls on each experiment consisted of at least 6 specimens being incubated with agonist alone (NMDA 200 µM or KA 25 µM). […]

[6] = test system: KA neurotoxicity; experiment: In vitro chick retina assay, protection against KA; assay type: cell-based; conditions: concentration required to completely prevent toxicity of KA (25 µM); 30 minutes at 37°C
From the text: as §3

[7] = test system: QA; experiment: In vitro chick retina assay, protection against QA; assay type: cell-based; conditions: 30 minutes at 37°C; QA concentration not given
[8] = test system: rat brain synaptic membranes (SPM); experiment: [³H]TCP modulation assay; assay type: binding
Experimental: The effect on [³H]TCP (1-[1-(2-thienyl)-cyclohexyl]piperidine) binding was measure in rat brain synaptic membranes (SPM) prepared as previously described (J.B. Monahan and J. Michel; J. Neurochem., 48, 1699-1708, (1987)). Prior to their use in the binding assay, frozen SPM were thawed, diluted twenty fold with 50 mM Tris/acetate, pH 7.4 containing 0.04% (v/v) Triton X-100, incubated for 30 min., at 37°C and centrifuged at 95,000 xspg for 15 min. The Triton X-100 treated SPM were washed with 5 mM Tris/HCl, pH 7.4 and centrifuged a total of six times. The compounds of the invention were incubated with SPM (0.2-0.4 mg protein) and 2 nM [³H]TCP in a total volume of 0.5 ml of 5 mM Tris/HCl buffer pH 7.4 at 25°C for 60 min. The samples were filtered through glass fiber filters (Schleicher & Schuell #32) which have been pretreated with 0.05% (v/v) polyethylenimine, washed with 2 ml of ice-cold 5 mM Tris/HCl buffer, and then counted on a Beckman LS 5800 liquid scintillation counter with automatic corrections for quenching and counting efficiency. Antagonist character was defined as the ability of the test compound to inhibit [³H]TCP binding in the presence of 1 µM L-glutamate, while agonist character is shown by stimulation of either basal [³H]TCP binding or the binding in the presence of 10 µM D-AP7, a specific competitive NMDA antagonist. Non specific binding was defined as the residual binding in the presence of 60 µM phencyclidine.

[9] = test system: 15-day-old chick embryo retina; conditions: agonist alone, 30 minutes, pilot experiments
From the text: This assay is adapted from procedures described in literature sources [Olney, J.W., Price, M.T., Fuller, T.A., Labruyere, J., Samson, L., Carpenter, M., Mahan, K., "The Anti-Excitotoxic Effects of Certain Anesthetics, Analgesics and Sedative-Hypnotics", Neuroscience Letters, 68, 29-34, (1986)]. By an approach similar to that earlier described [Reif-Lehrer, L., Bergenthal, J. and Hanninen, L., "Effects of Monosodium Glutamate on Chick Embryo Retina in Culture", Invest. Ophthalmol., 14, 114-124, (1975)], 15-day-old chick embryos were decapitated and their eyes removed and cut into quadrants after excising the cornea and removing the lens, vitreous and iris. The retinal quadrants were then gently separated from the pigment epithelium and incubated for 30 minutes at 37°C in a standard balanced salt solution (BSS) to which test compounds, either excitatory amino acid agonists or potential antagonists or both, were added in various concentrations. As described elsewhere [Olney, J.W., Price, M.T., Samson, L. and Labruyere, J., "The Role of Specific Ions in Glutamate Neurotoxicity". Neurosci. Lett.. […]

[10] = test system: 15-day-old chick embryo retina; conditions: 1 mM, incubated for 30 minutes in BSS, pilot studies; cited from earlier work

NC(C(=O)O)[C@@H]1C[C@@H]1C(=O)O (relative stereo) [cis-α-(carboxycyclopropyl)glycine]
inhibition of mungbean seedling growth [1]: potent inhibitor

N[C@H](CC1CC1C(=O)O)C(=O)O (stereo partly drawn) [cis-D-2-amino-4,5-methyleneadipic acid, Cis-D-2-amino-4,5-methyleneadipic acid]
Ki [2]: 1.9 µM | Binding Ki KA [3]: 13.0 µM | Ki [4]: > 300 µM | % protection vs NMDA ([5]; compound at 10 µM): 10(0%)* | % protection vs NMDA ([5]; compound at 25 µM): 25(33%)* | % protection vs NMDA ([5]; compound at 50 µM): 50(66%)* | % protection vs NMDA ([5]; compound at >75 µM): 100% | Antagonist activity vs NMDA [5]: > 75 µM | Antagonist activity vs KA [6]: >500 µM | Antagonist activity vs QA [7]: >500 µM | maximal stimulation of [³H]TCP binding ([8]; compared with the full agonist glutamate): substantially less than that shown for the full agonist glutamate | [³H]TCP Bound ([8]; compound 100 µM, in presence of D-AP7 (10µM), control without compound 5016): 11453 DPM | [³H]TCP Bound ([8]; compound 100 µM, in presence of L-Glutamate (1µM), control without compound 15466): 12265 DPM | [³H]TCP Bound ([8]; compound 200 µM, in presence of D-AP7 (10µM), control without compound 5016): 11161 DPM | [³H]TCP Bound ([8]; compound 200 µM, in presence of L-Glutamate (1µM), control without compound 15466): 11880 DPM | [³H]TCP Bound ([8]; compound 400 µM, in presence of D-AP7 (10µM), control without compound 5016): 9345 DPM | [³H]TCP Bound ([8]; compound 400 µM, in presence of L-Glutamate (1µM), control without compound 15466): 9622 DPM | effect on quantity of [³H]TCP bound ([8]; in the presence of D-APH): agonist effect | effect on quantity of [³H]TCP specifically bound ([8]; in the presence of L-glutamic acid): antagonist effect

N[C@@H](CC1CC1C(=O)O)C(=O)O (stereo partly drawn) [trans-L-2-amino-4,5-methyleneadipic acid, Trans-L-2-amino-4,5-methyleneadipic acid]
Ki [2]: 2.5 µM | Binding Ki KA [3]: 37.0 µM | Ki [4]: > 300 µM | Antagonist activity vs NMDA [5]: >500 µM | Antagonist activity vs KA [6]: >500 µM | Antagonist activity vs QA [7]: >500 µM

N[C@H](CC1CC1C(=O)O)C(=O)O (stereo partly drawn) [trans-D-2-amino-4,5-methyleneadipic acid, Trans-D-2-amino-4,5-methyleneadipic acid]
Ki [2]: 2.2 µM | Binding Ki KA [3]: 25.0 µM | Ki [4]: > 300 µM | % protection vs NMDA ([5]; compound at 50 µM): 50(0%)* | % protection vs NMDA ([5]; compound at 75 µM): 75(66%)* | % protection vs NMDA ([5]; compound at >125 µM): 100% | Antagonist activity vs NMDA [5]: > 125 µM | Antagonist activity vs KA [6]: >500 µM | Antagonist activity vs QA [7]: >500 µM

C=C(C)[C@H]1CN[C@H](C(=O)O)[C@H]1CC(=O)O [KA, Kainate]
lowest concentrations required to consistently obtain fully developed retinal lesions [9]: 25 µM

N[C@@H](CC1CC1C(=O)O)C(=O)O (stereo partly drawn) [cis-L-2-amino-4,5-methyleneadipic acid, Cis-L-2-amino-4,5-methyleneadipic acid]
Ki [2]: 14.2 µM | Binding Ki KA [3]: 23.0 µM | Ki [4]: > 300 µM | Antagonist activity vs NMDA [5]: >500 µM | Antagonist activity vs KA [6]: >500 µM | Antagonist activity vs QA [7]: >500 µM

N[C@@H](CCC(=O)O)C(=O)O [Glu, Glutamate]
retinal lesion [10]: a fully developed lesion occurs

CN[C@H](CC(=O)O)C(=O)O [NMDA, N-methyl-D-aspartate]
lowest concentrations required to consistently obtain fully developed retinal lesions [9]: 200 µM

Reference: EP0342558A2, “2-amino-4,5-methyleneadipic acid compounds for treatment of CNS disorders” (priority 1988, dated 1989)
